Converted amounts (≈) assume the structure as drawn. Where two headings read alike, the source gives them in different places.
Columns and labels:
C. glabrata 2586 [1] = experiment: FICI checkerboard, β-aescin with antifungal drugs; assay type: cell-based, Candida glabrata; conditions: combination with β-aescin
C. glabrata 2586 [2] = experiment: Interaction of AABs (3 µM) with antifungal agents, modified checkerboard; assay type: cell-based, Candida glabrata; conditions: for Multiplicity factor (MF) with C9: C9 3 µM; for MIC90 of antimycotic combined with C9: C9 at constant 3 µM; for MIC90 of antimycotic combined with C9 / MIC90 of antimycotic combined with C11 / MIC90 of antimycotic combined with C13 / MIC90 of antimycotic combined with C15: dilutions in µg/mL; for Multiplicity factor (MF) with C11: C11 3 µM; for MIC90 of antimycotic combined with C11: C11 at constant 3 µM; for MIC90 of antimycotic combined with C13: C13 at constant 3 µM; for Multiplicity factor (MF) with C15: C15 3 µM; for MIC90 of antimycotic combined with C15: C15 at constant 3 µM
C. glabrata ATCC 90030 [3] = experiment: FICI checkerboard, β-aescin with antifungal drugs; assay type: cell-based, Candida glabrata; conditions: combination with β-aescin
[4] = test system: C. glabrata strains (ATCC 90030, 2586, 2853); experiment: Interaction of AABs with antifungal agents, statements for all tested strains together; assay type: cell-based, Candida glabrata; conditions: all of the tested C. glabrata strains; AABs 3 µM
C. glabrata ATCC 90030 [5] = experiment: Interaction of AABs (3 µM) with antifungal agents, modified checkerboard; assay type: cell-based, Candida glabrata; conditions: for Multiplicity factor (MF) with C9: C9 3 µM, |MF| = MIC90 alone/MIC90 with AAB; for MIC90 of antimycotic combined with C9: C9 at constant 3 µM; for MIC90 of antimycotic combined with C9 / MIC90 of antimycotic combined with C11 / MIC90 of antimycotic combined with C13 / MIC90 of antimycotic combined with C15: dilutions in µg/mL; for Multiplicity factor (MF) with C11: C11 3 µM; for MIC90 of antimycotic combined with C11: C11 at constant 3 µM; for Multiplicity factor (MF) with C13: C13 3 µM; for MIC90 of antimycotic combined with C13: C13 at constant 3 µM; for Multiplicity factor (MF) with C15: C15 3 µM; for MIC90 of antimycotic combined with C15: C15 at constant 3 µM
C. glabrata ATCC 90030 [6] = experiment: MIC90/MFC, EUCAST broth microdilution; assay type: cell-based, Candida glabrata; conditions: Nakaseomyces glabratus, ATCC90030, ATCC 90030; for MFC: read-out: MFC; for MIC90: read-out: MIC90
C. glabrata 2853 [7] = experiment: FICI checkerboard, β-aescin with antifungal drugs; assay type: cell-based, Candida glabrata; conditions: for FICI: combination with β-aescin
[8] = test system: C. glabrata 2586 clinical strain; experiment: MIC90/MFC, EUCAST broth microdilution; assay type: cell-based, Candida glabrata; conditions: Nakaseomyces glabratus; for MFC: read-out: MFC; for MIC90: read-out: MIC90
[9] = test system: biofilms of C. glabrata DSM 1226 and two clinical isolates; parameters: method as in PMID 37508306; conditions: combination with β-AE; biofilms of three strains; ref [12]; cited from earlier work
C. glabrata 2853 [10] = experiment: Interaction of AABs (3 µM) with antifungal agents, modified checkerboard; assay type: cell-based, Candida glabrata; conditions: for Multiplicity factor (MF) with C9: C9 3 µM; for MIC90 of antimycotic combined with C9: C9 at constant 3 µM; for MIC90 of antimycotic combined with C9 / MIC90 of antimycotic combined with C11 / MIC90 of antimycotic combined with C13 / MIC90 of antimycotic combined with C15: dilutions in µg/mL; for Multiplicity factor (MF) with C11: C11 3 µM; for MIC90 of antimycotic combined with C11: C11 at constant 3 µM; for Multiplicity factor (MF) with C13: C13 3 µM; for MIC90 of antimycotic combined with C13: C13 at constant 3 µM; for Multiplicity factor (MF) with C15: C15 3 µM; for MIC90 of antimycotic combined with C15: C15 at constant 3 µM
[11] = test system: C. glabrata 2853 clinical strain; experiment: MIC90/MFC, EUCAST broth microdilution; assay type: cell-based, Candida glabrata; conditions: Nakaseomyces glabratus; for MFC: read-out: MFC; for MIC90: read-out: MIC90
[12] = test system: C. glabrata ATCC 90030 and 24 clinical isolates; parameters: method as in PMID 26092104; conditions: ref [8], cited from earlier work
C. albicans = test system: C. albicans; parameters: method as in doi:10.1016/j.carbpol.2003.10.001; conditions: C. albicans among organisms tested; ref [35]; cited from earlier work
[13] = parameters: method as in doi:10.1007/BF02673395; conditions: ref [48]; cited from earlier work

Molecule | FICI (C. glabrata 2586 [1]) | Multiplicity factor (MF) with C9 (C. glabrata 2586 [2]) | MIC90 of antimycotic combined with C9 (C. glabrata 2586 [2]) | Multiplicity factor (MF) with C11 (C. glabrata 2586 [2]) | MIC90 of antimycotic combined with C11 (C. glabrata 2586 [2]) | MIC90 of antimycotic combined with C13 (C. glabrata 2586 [2]) | Multiplicity factor (MF) with C15 (C. glabrata 2586 [2]) | MIC90 of antimycotic combined with C15 (C. glabrata 2586 [2]) | FICI (C. glabrata ATCC 90030 [3]) | Multiplicity factor (MF) with C9 (C. glabrata ATCC 90030 [5]) | MIC90 of antimycotic combined with C9 (C. glabrata ATCC 90030 [5]) | Multiplicity factor (MF) with C11 (C. glabrata ATCC 90030 [5]) | MIC90 of antimycotic combined with C11 (C. glabrata ATCC 90030 [5]) | Multiplicity factor (MF) with C13 (C. glabrata ATCC 90030 [5]) | MIC90 of antimycotic combined with C13 (C. glabrata ATCC 90030 [5]) | Multiplicity factor (MF) with C15 (C. glabrata ATCC 90030 [5]) | MIC90 of antimycotic combined with C15 (C. glabrata ATCC 90030 [5]) | MFC (C. glabrata ATCC 90030 [6]) [µg/mL] | MIC90 (C. glabrata ATCC 90030 [6]) [µg/mL] | FICI (C. glabrata 2853 [7]) | further results
CCC(C)n1ncn(-c2ccc(N3CCN(c4ccc(OCC5COC(Cn6cncn6)(c6ccc(Cl)cc6Cl)O5)cc4)CC3)cc2)c1=O (centres unmarked) [Itraconazole] | 1.004 | 1 | 4096 | 1 | 4096 | 4096 | 1 | 4096 | 1.004 | 1 | 4096 | 1 | 4096 | 1 | 4096 | 1 | 4096 | 4100 (≈ 5.8 mM) | 4100 (≈ 5.8 mM) | 1.004 | Multiplicity factor (MF) with C13 (C. glabrata 2586 [2]; C13 3 µM): 1; MF with AABs [4]: 1; MFC [8]: 4100 µg/mL (≈ 5.8 mM); MIC90 [8]: 4100 µg/mL (≈ 5.8 mM); FICI [9]: ≤ 0.5; Multiplicity factor (MF) with C9 (C. glabrata 2853 [10]): 1; MIC90 of antimycotic combined with C9 (C. glabrata 2853 [10]): 4096; Multiplicity factor (MF) with C11 (C. glabrata 2853 [10]): 1; MIC90 of antimycotic combined with C11 (C. glabrata 2853 [10]): 4096; Multiplicity factor (MF) with C13 (C. glabrata 2853 [10]): 1; MIC90 of antimycotic combined with C13 (C. glabrata 2853 [10]): 4096; Multiplicity factor (MF) with C15 (C. glabrata 2853 [10]): 1; MIC90 of antimycotic combined with C15 (C. glabrata 2853 [10]): 4096; MFC [11]: 4100 µg/mL (≈ 5.8 mM); MIC90 [11]: 4100 µg/mL (≈ 5.8 mM)
CC(=O)N1CCN(c2ccc(OCC3COC(Cn4ccnc4)(c4ccc(Cl)cc4Cl)O3)cc2)CC1 (centres unmarked) [Ketoconazole] | 1.25 | 8 | 64 | 16 | 32 | 16 | 64 | 8 | 2 | 16 (16) | 16 (16) | 16 (16) | 16 (16) | 16 (16) | 16 (16) | 64 | 4 | 1020 (≈ 1.93 mM) | 256 (≈ 0.482 mM) | 0.75 | Multiplicity factor (MF) with C9 (C. glabrata ATCC 90030 [5]; listed as ketoconazole): 16; Multiplicity factor (MF) with C11 (C. glabrata ATCC 90030 [5]; listed as ketoconazole): 16; Multiplicity factor (MF) with C13 (C. glabrata ATCC 90030 [5]; listed as ketoconazole): 16; Type of interaction with β-AE (by FICI) (C. glabrata 2853 [7]): additive; MFC [8]: 1020 µg/mL (≈ 1.93 mM); MIC90 [8]: 512 µg/mL (≈ 0.963 mM); FICI [9]: ≤ 0.5; Multiplicity factor (MF) with C9 (C. glabrata 2853 [10]): 1; MIC90 of antimycotic combined with C9 (C. glabrata 2853 [10]): 4; Multiplicity factor (MF) with C11 (C. glabrata 2853 [10]): 1; MIC90 of antimycotic combined with C11 (C. glabrata 2853 [10]): 4; Multiplicity factor (MF) with C13 (C. glabrata 2853 [10]): 2 (2); Multiplicity factor (MF) with C13 (C. glabrata 2853 [10]; listed as ketoconazole): 2; MIC90 of antimycotic combined with C13 (C. glabrata 2853 [10]): 2 (2); Multiplicity factor (MF) with C15 (C. glabrata 2853 [10]): 4; MIC90 of antimycotic combined with C15 (C. glabrata 2853 [10]): 1; MFC [11]: 1020 µg/mL (≈ 1.93 mM); MIC90 [11]: 4 µg/mL (≈ 0.00753 mM)
C[C@@H]1[C@H](O)[C@@H](C)/C=C/C=C/CC/C=C/C=C/C=C/C=C/C(O[C@H]2O[C@H](C)[C@@H](O)[C@H](N)[C@@H]2O)CC2O[C@](O)(CC(O)C(O)CCC(O)CC(O)CC(O)CC(=O)O[C@H]1C)CC(O)C2C(=O)O (some centres unmarked) [nystatin] | – | – | – | – | – | – | – | – | – | – | – | – | – | – | – | – | – | – | – | – | Fold reduction of MIC ([12]; subinhibitory concentrations of β-AE crystalline): 2–16 fold; Fold reduction of MIC ([12]; subinhibitory concentrations of β-AE sodium): 2–4 fold
C12–C18 alkyl amido propyl dimethylamine betaine [AAPDB] | – | – | – | – | – | – | – | – | – | – | – | – | – | – | – | – | – | – | – | – | Antimicrobial activity (C. albicans): active
N-hexadecylamidepropylbetaine | – | – | – | – | – | – | – | – | – | – | – | – | – | – | – | – | – | – | – | – | Krafft point [13]: 16 °C
